Reference: PubChem BioAssay (NCI)
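Where inhibition never reached the appropriate level, the endpoint shown equals the highest concentration tested. Otherwise, values were interpolated linearly from a five-concentration, 48-hour dose response in 96-well plates. Abbreviation: GI50, concentration required for 50% inhibition of growth. TGI denotes the concentration required for complete inhibition of growth.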

Assays:
Assay in all cases: NCI anticancer screen, dose series, 48 h
786-0 renal = tested on: 786-0 renal
A498 renal = tested on: A498 renal
ACHN renal = tested on: ACHN renal
BT-549 breast = tested on: BT-549 breast
CAKI-1 renal = tested on: CAKI-1 renal
CCRF-CEM leukemia = tested on: CCRF-CEM leukemia
COLO 205 colon = tested on: COLO 205 colon
DU-145 prostate = tested on: DU-145 prostate
HCC-2998 colon = tested on: HCC-2998 colon
HCT-116 colon = tested on: HCT-116 colon
HCT-15 colon = tested on: HCT-15 colon
HL-60(TB) leukemia = tested on: HL-60(TB) leukemia
HOP-62 NSCLC = tested on: HOP-62 NSCLC
HOP-92 NSCLC = tested on: HOP-92 NSCLC
HS 578T breast = tested on: HS 578T breast
HT29 colon = tested on: HT29 colon
IGROV1 ovarian = tested on: IGROV1 ovarian
K-562 leukemia = tested on: K-562 leukemia
M14 melanoma = tested on: M14 melanoma
MALME-3M melanoma = tested on: MALME-3M melanoma
MCF7 breast = tested on: MCF7 breast
MDA-MB-435 = tested on: MDA-MB-435
MOLT-4 leukemia = tested on: MOLT-4 leukemia
NCI-H226 lung = tested on: NCI-H226 lung
NCI-H23 lung = tested on: NCI-H23 lung
NCI-H460 lung = tested on: NCI-H460 lung
NCI-H522 lung = tested on: NCI-H522 lung
NCI/ADR-RES ovarian = tested on: NCI/ADR-RES ovarian
OVCAR-3 ovarian = tested on: OVCAR-3 ovarian
OVCAR-4 ovarian = tested on: OVCAR-4 ovarian
OVCAR-5 ovarian = tested on: OVCAR-5 ovarian
PC-3 prostate = tested on: PC-3 prostate
RPMI-8226 leukemia = tested on: RPMI-8226 leukemia
RXF 393 renal = tested on: RXF 393 renal
SF-268 CNS = tested on: SF-268 CNS
SF-539 CNS = tested on: SF-539 CNS
SK-MEL-2 melanoma = tested on: SK-MEL-2 melanoma
SK-MEL-28 melanoma = tested on: SK-MEL-28 melanoma
SK-MEL-5 melanoma = tested on: SK-MEL-5 melanoma
SK-OV-3 ovarian = tested on: SK-OV-3 ovarian
SN12C renal = tested on: SN12C renal
SNB-19 CNS = tested on: SNB-19 CNS
SNB-75 CNS = tested on: SNB-75 CNS
SR leukemia = tested on: SR leukemia
SW-620 colon = tested on: SW-620 colon
T-47D breast = tested on: T-47D breast
TK-10 renal = tested on: TK-10 renal
U251 CNS = tested on: U251 CNS
UACC-257 melanoma = tested on: UACC-257 melanoma
UACC-62 melanoma = tested on: UACC-62 melanoma
UO-31 renal = tested on: UO-31 renal
A549 NSCLC = tested on: A549 NSCLC
EKVX NSCLC = tested on: EKVX NSCLC
KM12 colon = tested on: KM12 colon
OVCAR-8 ovarian = tested on: OVCAR-8 ovarian
SF-295 CNS = tested on: SF-295 CNS

## N=C(N)c1ccc(-c2ccc(-c3cccs3)o2)cc1
786-0 renal
  GI50: 1.89 µM
  TGI: 3.44 µM
A498 renal
  GI50: 1.8 µM
  TGI: 3.86 µM
ACHN renal
  GI50: 1.86 µM
  TGI: 3.51 µM
BT-549 breast
  GI50: 2.05 µM
  TGI: 4.02 µM
CAKI-1 renal
  GI50: 2.14 µM
  TGI: 5.2 µM
CCRF-CEM leukemia
  GI50: 2.33 µM
  TGI: 5.9 µM
COLO 205 colon
  GI50: 1.91 µM
  TGI: 3.49 µM
DU-145 prostate
  GI50: 2.91 µM
  TGI: 7.31 µM
HCC-2998 colon
  GI50: 1.87 µM
  TGI: 3.41 µM
HCT-116 colon
  GI50: 1.83 µM
  TGI: 3.23 µM
HCT-15 colon
  GI50: 1.86 µM
  TGI: 3.8 µM
HL-60(TB) leukemia
  GI50: 1.82 µM
  TGI: 4.11 µM
HOP-62 NSCLC
  GI50: 2.04 µM
  TGI: 4.32 µM
HOP-92 NSCLC
  GI50: 1.4 µM
  TGI: 3.1 µM
HS 578T breast
  GI50: 2.14 µM
  TGI: 5.25 µM
HT29 colon
  GI50: 1.89 µM
  TGI: 3.7 µM
IGROV1 ovarian
  GI50: 1.92 µM
  TGI: 3.83 µM
K-562 leukemia
  GI50: 2.27 µM
  TGI: 5.72 µM
M14 melanoma
  GI50: 1.9 µM
  TGI: 3.39 µM
MALME-3M melanoma
  GI50: 1.91 µM
  TGI: 3.42 µM
MCF7 breast
  GI50: 1.69 µM
  TGI: 3.29 µM
MDA-MB-435
  GI50: 1.76 µM
  TGI: 3.39 µM
MOLT-4 leukemia
  GI50: 2.34 µM
  TGI: 4.89 µM
NCI-H226 lung
  GI50: 2.07 µM
  TGI: 5.13 µM
NCI-H23 lung
  GI50: 3.63 µM
  TGI: 13.2 µM
NCI-H460 lung
  GI50: 1.79 µM
  TGI: 3.41 µM
NCI-H522 lung
  GI50: 2.01 µM
  TGI: 3.89 µM
NCI/ADR-RES ovarian
  GI50: 2.88 µM
  TGI: 7.63 µM
OVCAR-3 ovarian
  GI50: 2.25 µM
  TGI: 4.92 µM
OVCAR-4 ovarian
  GI50: 2.35 µM
  TGI: 5.72 µM
OVCAR-5 ovarian
  GI50: 2.02 µM
  TGI: 6.2 µM
PC-3 prostate
  GI50: 2.13 µM
  TGI: 5.56 µM
RPMI-8226 leukemia
  GI50: 2.12 µM
  TGI: 4.98 µM
RXF 393 renal
  GI50: 1.69 µM
  TGI: 3.46 µM
SF-268 CNS
  GI50: 2.19 µM
  TGI: 5.17 µM
SF-539 CNS
  GI50: 1.68 µM
  TGI: 3.14 µM
SK-MEL-2 melanoma
  GI50: 2.19 µM
  TGI: 4.04 µM
SK-MEL-28 melanoma
  GI50: 1.71 µM
  TGI: 3.11 µM
SK-MEL-5 melanoma
  GI50: 1.65 µM
  TGI: 3.02 µM
SK-OV-3 ovarian
  GI50: 2.4 µM
  TGI: 5.77 µM
SN12C renal
  GI50: 1.97 µM
  TGI: 4.38 µM
SNB-19 CNS
  GI50: 2.43 µM
  TGI: 7.81 µM
SNB-75 CNS
  GI50: 1.71 µM
  TGI: 3.5 µM
SR leukemia
  GI50: 2.99 µM
  TGI: 8.54 µM
SW-620 colon
  GI50: 1.77 µM
  TGI: 3.37 µM
T-47D breast
  GI50: 2.17 µM
  TGI: 4.88 µM
TK-10 renal
  GI50: 1.95 µM
  TGI: 3.44 µM
U251 CNS
  GI50: 1.76 µM
  TGI: 3.37 µM
UACC-257 melanoma
  GI50: 1.98 µM
  TGI: 3.63 µM
UACC-62 melanoma
  GI50: 1.75 µM
  TGI: 3.35 µM
UO-31 renal
  GI50: 1.9 µM
  TGI: 3.74 µM

## CCCCCCCCCCCCCCCC[N+](C)(C)Cc1ccc(F)cc1
A498 renal
  TGI: 88.7 µM
A549 NSCLC
  TGI: 11.3 µM
ACHN renal
  TGI: 10.1 µM
BT-549 breast
  TGI: 8.87 µM
CAKI-1 renal
  TGI: 15.6 µM
CCRF-CEM leukemia
  TGI: 3.28 µM
COLO 205 colon
  TGI: 2.87 µM
DU-145 prostate
  TGI: 20.8 µM
EKVX NSCLC
  TGI: 6.01 µM
HCT-15 colon
  TGI: 34.9 µM
HS 578T breast
  TGI: 3.44 µM
HT29 colon
  TGI: 5.78 µM
IGROV1 ovarian
  TGI: 1.57 µM
KM12 colon
  TGI: 2.33 µM
M14 melanoma
  TGI: 3.05 µM
MCF7 breast
  TGI: 3.67 µM
MDA-MB-435
  TGI: 3.99 µM
NCI-H226 lung
  TGI: 9.58 µM
NCI-H23 lung
  TGI: 14.2 µM
NCI-H522 lung
  TGI: 2.03 µM
NCI/ADR-RES ovarian
  TGI: 57.1 µM
OVCAR-3 ovarian
  TGI: 5.49 µM
OVCAR-5 ovarian
  TGI: 3.79 µM
OVCAR-8 ovarian
  TGI: 3.11 µM
PC-3 prostate
  TGI: 2.51 µM
SF-295 CNS
  TGI: 7.69 µM
SF-539 CNS
  TGI: 2.31 µM
SK-MEL-2 melanoma
  TGI: 2.82 µM
SK-MEL-28 melanoma
  TGI: 15.1 µM
SK-OV-3 ovarian
  TGI: 6.68 µM
SR leukemia
  TGI: 4.23 µM
T-47D breast
  TGI: 25.9 µM
TK-10 renal
  TGI: 4.8 µM
UACC-257 melanoma
  TGI: 4.92 µM
UACC-62 melanoma
  TGI: 4.45 µM
UO-31 renal
  TGI: 31.1 µM
